Results as given in the NIST ThermoML archive (doi:10.1016/j.jct.2006.03.021).

Assay: molar heat capacity at constant pressure
Settings: 101.33 kPa, Crystal, Vacuum adiabatic calorimetry

O.O.OC[C@H]1O[C@H](O[C@H]2O[C@H](CO)[C@@H](O)[C@H](O)[C@H]2O)[C@H](O)[C@@H](O)[C@@H]1O [D-(+)-trehalose dihydrate]
Settings | molar heat capacity at constant pressure [J/K/mol]
13.55 K | 6.385
14.6 K | 7.838
15 K | 8.51
15.59 K | 9.345
16.61 K | 10.96
17.67 K | 12.73
18.75 K | 14.64
19.81 K | 16.57
20 K | 16.78
20.85 K | 18.51
21.9 K | 20.53
22.93 K | 22.57
23.97 K | 24.62
25.02 K | 26.77
26.11 K | 29
27.24 K | 31.35
28.42 K | 33.79
29.57 K | 36.22
30 K | 37.06
30.71 K | 38.61
31.92 K | 41.15
33.18 K | 43.81
34.5 K | 46.58
35.82 K | 49.36
37.15 K | 52.14
38.46 K | 54.9
39.78 K | 57.62
40 K | 58.13
41.15 K | 60.45
42.54 K | 63.33
43.91 K | 66.14
45.27 K | 68.9
46.63 K | 71.67
48.02 K | 74.49
49.43 K | 77.32
50 K | 78.42
50.88 K | 80.24
52.39 K | 83.22
53.93 K | 86.27
55.51 K | 89.39
56.3 K | 90.95
57.99 K | 94.25
59.66 K | 97.53
60 K | 98.14
61.39 K | 100.85
63.18 K | 104.27
64.99 K | 107.74
66.83 K | 111.22
68.66 K | 114.67
70 K | 117.19
70.49 K | 118.11
72.33 K | 121.52
74.17 K | 124.94
76.04 K | 128.4
77.89 K | 131.81
79.75 K | 135.21
80 K | 135.65
81.63 K | 138.61
83.51 K | 142.01
85.4 K | 145.39
87.31 K | 148.81
89.22 K | 152.17
90 K | 153.54
91.14 K | 155.56
93.09 K | 158.95
95.06 K | 162.41
97.04 K | 165.84
98.99 K | 169.18
100 K | 170.91
100.9 K | 172.45
102.78 K | 175.65
104.63 K | 178.78
106.45 K | 181.89
108.25 K | 184.88
110 K | 187.82
110.03 K | 187.85
111.78 K | 190.76
113.51 K | 193.65
115.22 K | 196.52
116.9 K | 199.3
118.57 K | 202
120 K | 204.35
120.3 K | 204.92
122.1 K | 207.75
123.94 K | 210.99
125.83 K | 213.81
127.75 K | 216.99
129.72 K | 220.18
130 K | 220.6
131.71 K | 223.29
133.7 K | 226.52
135.72 K | 229.81
137.73 K | 232.95
139.73 K | 236.18
140 K | 236.57
141.73 K | 239.27
143.74 K | 242.56
145.72 K | 245.6
147.72 K | 248.78
149.71 K | 251.89
150 K | 252.32
151.71 K | 254.95
153.75 K | 258.14
155.79 K | 261.37
157.84 K | 264.6
159.89 K | 267.82
160 K | 267.93
161.93 K | 270.95
163.96 K | 274.13
165.96 K | 277.24
167.95 K | 280.33
169.92 K | 283.36
170 K | 283.46
171.88 K | 286.43
173.83 K | 289.42
175.76 K | 292.43
177.63 K | 295.3
179.56 K | 298.22
180 K | 299
181.49 K | 301.33
183.41 K | 304.3
185.35 K | 307.28
187.29 K | 310.3
189.22 K | 313.27
190 K | 314.53
191.14 K | 316.25
193.07 K | 319.27
195.02 K | 322.27
196.95 K | 325.32
198.87 K | 328.28
200 K | 330.09
200.8 K | 331.37
202.74 K | 334.35
204.67 K | 337.37
206.6 K | 340.29
208.53 K | 343.33
210 K | 345.69
210.48 K | 346.48
212.42 K | 349.61
214.34 K | 352.52
216.28 K | 355.42
220 K | 361.36
220.18 K | 361.71
222.12 K | 364.67
224.04 K | 367.73
225.95 K | 370.88
227.85 K | 373.65
229.74 K | 376.66
230 K | 377.12
231.62 K | 379.52
233.49 K | 382.68
235.35 K | 385.55
237.2 K | 388.42
239.04 K | 391.36
240 K | 392.98
240.87 K | 394.34
242.69 K | 397.3
244.52 K | 400.18
246.37 K | 403.04
248.24 K | 406.16
250 K | 408.95
250.12 K | 409.17
252 K | 412.27
253.8 K | 415.1
255.61 K | 417.77
257.43 K | 420.98
259.28 K | 423.94
260 K | 425.06
261.14 K | 426.99
263.01 K | 430.01
264.88 K | 433.05
266.76 K | 435.05
268.64 K | 439.07
270 K | 441.31
270.53 K | 442.21
272.4 K | 445.33
274.28 K | 448.34
276.17 K | 451.18
278.06 K | 454.48
279.95 K | 457.55
280 K | 457.7
281.85 K | 460.72
283.75 K | 463.95
285.66 K | 466.99
287.57 K | 470.12
289.49 K | 473.55
290 K | 474.26
291.41 K | 476.85
293.32 K | 479.88
295.23 K | 482.95
297.16 K | 486.02
298.15 K | 487.87
299.07 K | 489.45
300 K | 490.98
300.98 K | 492.63
